The test addresses T1, H+/K+-ATPase (Sus scrofa, UniProt P19156).
T1 construct: reaction buffer solution (60 mmol/l Tris-HCl buffer solution, pH 7.4) containing hog gastric vesicle; from tissue; host or cells: hog stomach (gastric vesicles, by centrifugation after Rabon et al. 1988)
Kind of test: Inhibition of proton pump (H+/K+-ATPase) activity in hog gastric vesicles. The class given is biochemical. The note with it: K+ specific H+/K+-ATPase activity, pH 7.4, 37° C. for 40 minutes, malachite green. In short, it runs like this:
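Hog gastric vesicles in 60 mmol/l Tris-HCl pH 7.4 with compound, started with ATP, 40 min at 37° C. Pi read by malachite green at 570 nm; K+-specific activity taken as difference between +K+ and −K+ activity. IC50 from % inhibition by 4-parameter logistic fit.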
T1 sequence (P19156 2-1034 limits assumed): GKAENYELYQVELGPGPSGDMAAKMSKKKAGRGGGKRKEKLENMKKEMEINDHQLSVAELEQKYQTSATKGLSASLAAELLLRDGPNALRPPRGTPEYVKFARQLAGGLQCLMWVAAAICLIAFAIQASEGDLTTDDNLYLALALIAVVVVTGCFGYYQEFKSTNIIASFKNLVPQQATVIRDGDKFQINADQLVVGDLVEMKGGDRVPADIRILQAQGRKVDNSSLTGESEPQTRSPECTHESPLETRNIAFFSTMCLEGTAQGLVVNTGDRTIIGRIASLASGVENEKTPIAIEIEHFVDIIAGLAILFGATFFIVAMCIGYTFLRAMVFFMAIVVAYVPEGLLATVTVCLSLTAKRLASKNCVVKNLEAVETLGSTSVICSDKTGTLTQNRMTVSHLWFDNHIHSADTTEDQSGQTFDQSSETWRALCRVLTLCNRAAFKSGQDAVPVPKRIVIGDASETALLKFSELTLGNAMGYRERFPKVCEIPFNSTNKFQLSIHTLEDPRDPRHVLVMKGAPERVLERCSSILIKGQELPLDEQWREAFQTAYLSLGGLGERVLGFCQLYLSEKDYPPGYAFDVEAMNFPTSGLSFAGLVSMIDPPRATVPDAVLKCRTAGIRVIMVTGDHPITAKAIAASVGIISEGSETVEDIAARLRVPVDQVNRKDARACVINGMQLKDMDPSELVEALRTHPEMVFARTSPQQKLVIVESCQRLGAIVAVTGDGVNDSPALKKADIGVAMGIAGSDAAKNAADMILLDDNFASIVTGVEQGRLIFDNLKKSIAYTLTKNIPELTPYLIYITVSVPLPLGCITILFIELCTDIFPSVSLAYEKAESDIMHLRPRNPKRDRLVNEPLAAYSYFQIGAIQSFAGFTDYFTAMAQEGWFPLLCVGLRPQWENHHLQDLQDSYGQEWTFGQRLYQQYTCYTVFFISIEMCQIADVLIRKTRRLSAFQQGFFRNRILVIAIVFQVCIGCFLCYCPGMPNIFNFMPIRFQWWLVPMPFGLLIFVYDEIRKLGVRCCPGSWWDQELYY
T1 sequence (P18434 whole entry partner): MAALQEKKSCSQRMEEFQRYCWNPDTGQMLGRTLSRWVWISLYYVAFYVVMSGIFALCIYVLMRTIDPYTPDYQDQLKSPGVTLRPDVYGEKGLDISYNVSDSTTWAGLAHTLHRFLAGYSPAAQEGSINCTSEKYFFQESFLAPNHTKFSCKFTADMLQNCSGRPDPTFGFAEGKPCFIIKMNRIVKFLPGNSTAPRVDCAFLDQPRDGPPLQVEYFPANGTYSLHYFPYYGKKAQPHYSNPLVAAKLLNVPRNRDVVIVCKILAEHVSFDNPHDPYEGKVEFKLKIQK
In general, IC50 refers to the concentration needed to halve the response being measured. The low end stands for greater potency in that assay, the high end for weaker potency in that assay. As for `CNC1CCc2c1cn(S(=O)(=O)c1cccc(Cl)c1)c2-c1cccc(Cl)n1` (centres unmarked) [Example 36, 2-((3-chlorophenyl)sulfonyl)-1-(6-chloropyridin-2-yl)-N-methyl-2,4,5,6-tetrahydrocyclopenta[c]pyrrol-4-amine], 2540 nM corresponded to half-maximal inhibition (IC50).

On to `CNC1CCc2c1cn(S(=O)(=O)c1ccc(C)cc1)c2-c1ccccc1F` (centres unmarked) [Example 59, 1-(2-fluorophenyl)-N-methyl-2-tosyl-2,4,5,6-tetrahydrocyclopenta[c]pyrrol-4-amine], for which the concentration for half-maximal inhibition (IC50) stood at 1000 nM.

Molecule `CNC1CCc2c1cn(S(=O)(=O)c1cccc(Cl)c1C)c2-c1ccccc1F` (centres unmarked) [Example 63, 2-((3-chloro-2-methylphenyl)sulfonyl)-1-(2-fluorophenyl)-N-methyl-2,4,5,6-tetrahydrocyclopenta[c]pyrrol-4-amine] showed an IC50 of 610 nM.

`CC(C)NC1CCc2c1cn(S(=O)(=O)c1cccnc1)c2-c1ccccc1F` (centres unmarked) [Example 104, 1-(2-fluorophenyl)-N-isopropyl-2-(pyridin-3-ylsulfonyl)-2,4,5,6-tetrahydrocyclopenta[c]pyrrol-4-amine] displayed an IC50 of 50000 nM.

The molecule `CNC1CCc2c1cn(Cc1cccc(OC)c1)c2-c1ccccc1F` (centres unmarked) [Example 111, 1-(2-fluorophenyl)-2-(3-methoxybenzyl)-N-methyl-2,4,5,6-tetrahydrocyclopenta[c]pyrrol-4-amine] came in with an IC50 of 2570 nM.

`CN(C)C1CCCc2c1cn(S(=O)(=O)c1cccnc1)c2-c1ccccc1F` (centres unmarked) [Example 144, 1-(2-fluorophenyl)-N,N-dimethyl-2-(pyridin-3-ylsulfonyl)-4,5,6,7-tetrahydro-2H-isoindole-4-amine] came in with an IC50 of 8000 nM.

In turn, `CNC1CCc2c1cn(S(=O)(=O)c1cccc(Cl)c1)c2-c1ccoc1` (centres unmarked) [Example 31, 2-((3-chlorophenyl)sulfonyl)-1-(furan-3-yl)-N-methyl-2,4,5,6-tetrahydrocyclopenta[c]pyrrol-4-amine] gave an IC50 of 1340 nM.

Molecule `CNC1CCCc2c1cn(S(=O)(=O)c1cccc(C)c1)c2-c1ccccc1F` (centres unmarked) [Example 121, 1-(2-fluorophenyl)-N-methyl-2-(m-tolylsulfonyl)-4,5,6,7-tetrahydro-2H-isoindole-4-amine] registered an IC50 of 1500 nM.

`Cc1oc(=O)oc1COC(=O)N(C)C1CCc2c1cn(S(=O)(=O)c1cccc(Cl)c1)c2-c1ccccc1F` (centres unmarked) [Example 118, (5-methyl-2-oxo-1,3-dioxol-4-yl)methyl (2-((3-chlorophenyl)sulfonyl)-1-(2-fluorophenyl)-2,4,5,6-tetrahydrocyclopenta[c]pyrrol-4-yl)(methyl)carbamate]: the midpoint of inhibition, the IC50, lay at 40000 nM.

On to `CNC1CCc2c1cn(S(=O)(=O)c1cccnc1)c2-c1ccc(Cl)cc1F` (centres unmarked) [Example 91, 1-(4-chloro-2-fluorophenyl)-N-methyl-2-(pyridin-3-ylsulfonyl)-2,4,5,6-tetrahydrocyclopenta[c]pyrrol-4-amine], for which 690 nM corresponded to half-maximal inhibition (IC50).

As to `CNC1CCc2c1cn(S(=O)(=O)c1cccc(Cl)c1)c2-c1ccc(F)cc1` (centres unmarked) [Example 11, 2-((3-chlorophenyl)sulfonyl)-1-(4-fluorophenyl)-N-methyl-2,4,5,6-tetrahydrocyclopenta[c]pyrrol-4-amine], the IC50 came out at 550 nM.

The molecule `CNC1CCc2c1cn(S(=O)(=O)c1cccnc1)c2-c1ccsc1` (centres unmarked) [Example 94, N-methyl-2-(pyridin-3-ylsulfonyl)-1-(thiophen-3-yl)-2,4,5,6-tetrahydrocyclopenta[c]pyrrol-4-amine] registered an IC50 of 470 nM.

`CNC1CCCc2c1cn(S(=O)(=O)c1cccc(Cl)c1)c2-c1ccc(-c2ccccc2)cc1` (centres unmarked) [Example 127, 1-([1,1′-biphenyl]-4-yl)-2-((3-chlorophenyl)sulfonyl)-N-methyl-4,5,6,7-tetrahydro-2H-isoindole-4-amine] returned an IC50 of 4530 nM.

`CNC1CCc2c1cn(S(=O)(=O)c1cccc(OC)c1)c2-c1cc(Cl)ccc1Cl` (centres unmarked) [Example 55, 1-(2,5-dichlorophenyl)-2-((3-methoxyphenyl)sulfonyl)-N-methyl-2,4,5,6-tetrahydrocyclopenta[c]pyrrol-4-amine] registered an IC50 of 590 nM.

These data come from patent US10039747B2, “Tetrahydrocyclopentapyrrole derivatives and a method for preparing the same” (Daewoong Pharmaceutical Co., Ltd., priority 2013, dated 2018).
